In patent publication US6603031B1, “Vitamin D derivatives with cyclic substructures in the side chains, process and intermediate products for their production, and the use for the production of pharmaceutical agents” (Schering Aktiengesellschaft, priority 1999, dated 2003):
Like-named read-outs stand apart in the source and are kept apart here.

Legend:
HL 60 cells = assay: differentiation induction of HL 60 cells to macrophages (NBT reduction); type: cell-based, human; conditions: 96 hours incubation, reference calcitriol
Procedure: The differentiation-stimulating action of calcitriol analogues is also detected quantitatively.
It is known in the literature [D. J. Mangelsdorf et al., J. Cell. Biol. 98: 391 (1984)] that the treatment of human leukemia cells (promyelocyte cell line HL 60) in vitro with calcitriol induces the differentiation of cells to macrophages.
HL 60 cells are cultivated in tissue culture medium (RPMI 10% fetal calf serum) at 37° C. in an atmosphere of 5% CO2 in air.
For substance testing, the cells are centrifuged off, and 2.0×10^5 cells/ml in phenol red-free tissue culture medium is taken up. The test substances are dissolved in ethanol and diluted with tissue culture medium without phenol red to the desired concentration. The dilution stages are mixed with the cell suspension at a ratio of 1:10, and 100 μl each of this cell suspension that is mixed with substance is pipetted into an indentation of a 96-hole plate. For control, a cell suspension is mixed analogously with the solvent.
After incubation for 96 hours at 37° C. in 5% CO2 in air, 100 μl of an NBT-TPA solution (nitro blue tetrazolium (NBT), final concentration in the batch of 1 mg/ml, tetradecanoyl phorbolmyristate-13-acetate (TPA), final concentration in the batch of 2×10^−7 mol/l) is pipetted into each indentation of the 96-hole plate in the cell suspension.
By incubation for 2 hours at 37° C. and 5% CO2 in air, NBT is reduced to insoluble formazan because of the intracellular oxygen radical release, stimulated by TPA, in the cells that are differentiated to macrophages.
To complete the reaction, the indentations of the 96-hole plate are suctioned off, and the cells are affixed to the bottom of the plate by adding methanol and dried after affixing. To dissolve the intracellular formazan crystals that are formed, 100 μl of potassium hydroxide (2 mol/l) and 100 μl of dimethyl sulfoxide are pipetted into each indentation and ultrasonically treated for 1 minute. The concentration of formazan is measured by spectrophotometry at 650 nm.
As a yardstick for the differentiation induction of HL 60 cells to macrophages, the concentration of formed formazan applies.

[1] = acute hypercalcemic action after one-time subcutaneous administration (serum calcium); conditions: male rats, reference calcitriol
Procedure: (§1) To determine the acute hypercalcemic action of various calcitriol derivatives, the test that is described below is carried out:
(§2) During the testing time, the rats are kept in special cages to determine the excretion-of water-and mineral substances. Urine is collected in 2 fractions (0-16 hours and 16-22 hours). An oral dose of calcium (0.1 mmol of calcium in 6.5% alpha-hydroxypropyl-cellulose, 5 ml/animal) replaces at 1600 hours the calcium intake that is lacking by food deprivation. At the end of the test, the animals are killed by decapitation and exsanguinated to determine the serum-calcium values. For the primary screen test in vivo, an individual standard dose (200 μg/kg) is tested. For selected substances, the result is supported by establishing a dose-effect relation.
(§3) The significance of differences occurring between substance groups and controls and between test substance and reference substance are supported with suitable statistical processes.

[2] = rat, in vivo, sc
Procedure: as §1, §2, §3

vitamin D receptor = molecular target: T1, vitamin D receptor (Sus scrofa, UniProt A3RGC1); assay: calcitriol-receptor test (competition with 3H-calcitriol); conditions: protein extract from intestines of juvenile pigs
T1 sequence (A3RGC1 1-427): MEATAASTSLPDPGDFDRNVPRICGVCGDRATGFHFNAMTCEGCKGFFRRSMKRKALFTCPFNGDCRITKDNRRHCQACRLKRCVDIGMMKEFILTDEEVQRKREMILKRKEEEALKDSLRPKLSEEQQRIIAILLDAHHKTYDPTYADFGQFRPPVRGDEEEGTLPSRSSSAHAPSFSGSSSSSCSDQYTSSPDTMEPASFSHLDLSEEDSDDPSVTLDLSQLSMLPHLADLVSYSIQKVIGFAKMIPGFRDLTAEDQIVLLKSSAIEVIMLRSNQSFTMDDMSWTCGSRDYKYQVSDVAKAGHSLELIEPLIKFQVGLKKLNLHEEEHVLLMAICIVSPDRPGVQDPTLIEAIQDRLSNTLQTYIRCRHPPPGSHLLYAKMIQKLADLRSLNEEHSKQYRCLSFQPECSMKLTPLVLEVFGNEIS
Procedure: The vitamin D activity of the substances according to the invention is determined with the aid of the calcitriol-receptor test. It is carried out using a protein extract from the intestines of juvenile pigs. […] To this end, 250 μl of a charcoal-dextran suspension is fed to each test tube and incubated at 4° C. for 20 minutes. Then, the samples are centrifuged at 10,000 g for 5 minutes at 40° C. The supernatant is decanted and measured in a β-counter after 1 hour of equilibration in Picofluor 15™.
The competition curves that are obtained at various concentrations of test substance as well as of reference substance (unlabeled calcitriol) at constant concentration of the reference substance (^3H-calcitriol) are placed in relation to one another, and a competition factor (KF) is determined.
It is defined as a quotient of the concentrations of the respective test substance and the reference substance, which are necessary for 50% competition:
KF=Concentration of test substance at 50% competition/Concentration of reference substance at 50% competition

Row | SMILES | DR (Ca) (dose ratio for hypercalcemia, test substance dose/reference substance dose for comparable actions) [2] | KF (competition factor: concentration of test substance / reference substance at 50% competition) (vitamin D receptor) | DR (HL 60) (dose ratio test substance/reference substance for comparable semi-maximum actions) (HL 60 cells) | DR (Ca) (dose ratio for hypercalcemia, test substance dose/reference substance dose for comparable actions) [1]
1 | C=C1/C(=C\C=C2/CCC[C@]3(C)[C@@H]([C@H](C)CCCC(C)(C)O)CC[C@@H]23)C[C@@H](O)C[C@@H]1O [Calcitriol, 1,25-dihydroxy vitamin D3, reference compound] |  |  | 1 | 1
2 | C=C1C(=CC=C2CCCC3(C)C2CCC3C(C)CCCC(O)c2cocn2)CC(O)CC1O [20a, (5Z,7E)-(1S,3R,24aR)-24a-(Oxazol-4-yl)-24a-homo-9,10-secochola-5,7,10(19)-triene-1,3,24a-triol] |  | 3 | 2 | >50

Further lines, with some results ahead:

Row | DR (Ca) (dose ratio for hypercalcemia, test substance dose/reference substance dose for comparable actions) [2] | KF (competition factor: concentration of test substance / reference substance at 50% competition) (vitamin D receptor) | SMILES | DR (HL 60) (dose ratio test substance/reference substance for comparable semi-maximum actions) (HL 60 cells) | DR (Ca) (dose ratio for hypercalcemia, test substance dose/reference substance dose for comparable actions) [1]
3 | >30 | 5 | CC(CCCC(O)c1cocn1)C1CCC2C(=CC=C3CC(O)CC(O)C3)CCCC21C [16a, (7E)-(1R,3R,24aR)-24a-(Oxazol-4-yl)-24a-homo-19-nor-9,10-secochola-5,7-diene-1,3,24a-triol] | 5 | 
4 | >300 | 7 | C=C1C(=CC=C2CCCC3(C)C2CCC3C(C)CCC(O)c2nccs2)CC(O)CC1O [217a, (5Z,7E)-(1S,3R,24S)-24-(Thiazol-2-yl)-9,10-secochola-5,7,10(19)-triene-1,3,24-triol] | 100 | 
5 | >100 | 5 | C[C@H](CCC[C@H](O)c1cccs1)[C@H]1CC[C@H]2/C(=C/C=C3C[C@@H](O)C[C@H](O)C3)CCC[C@]12C [55b, (7E)-(1R,3R,24aS)-24a-(thien-2-yl)-24a-homo-19-nor-9,10-secochola-5,7-diene-1,3,24a-triol] | 8 | 
6 | >350 | 12 | C[C@H](CCCC(=O)c1cccs1)[C@H]1CC[C@H]2/C(=C/C=C3C[C@@H](O)C[C@H](O)C3)CCC[C@]12C [compound 57, (7E)-(1R,3R)-1,3-Dihydroxy-24a-(thien-2-yl)-24a-homo-19-nor-9,10-secochola-5,7-dien-24a-one] | 2 | 
